Test results published in patent US20260152527A1, “NOVEL MELANOCORTIN ANALOGS” (priority 2022, published 2026).
Converted amounts (≈) assume the structure as drawn. Like-named read-outs stand apart in the source and are kept apart here. Positions of bridges follow the written chain, without caps; N, C: chain ends. Non-standard residues stand in square brackets, D forms with d. Residues, ends and D or L forms follow the SMILES beside them. Triazole bridges read from a SMILES are 1,4-linked. *: point of attachment. Benzoyl(3,5-(OH)2) = O=C(c1cc(O)cc(O)c1)*; Lys(N3) = [N-]=[N+]=NCCCC[C@H](N)C(=O)O; dPhe(4-F) = N[C@H](Cc1ccc(F)cc1)C(=O)O; Nle = CCCC[C@H](N)C(=O)O; Pra = C#CC[C@H](N)C(=O)O

What was measured:
[1] = Thermodynamic solubility study in water; type: physicochemical; details: Table 8; read-out: Solubility
Description: The study was conducted in water. Water was added into compound powder to make a 10 mg/mL solution. Sample tubes were shaken at the vibrator for 1 hour (1000 rpm) and then equilibrated overnight at room temperature. Samples were centrifuged at 12000 rpm for 10 min to precipitate undissolved particles. Supernatants were transferred from tubes to a new plate. An aliquot of the supernatant after centrifugation was taken from each well, then analyzed by LC-MS/MS. The concentration of the supernatants was quantified by a standard curve.

[2] = biological target: T1, human recombinant MC1R (Homo sapiens, UniProt Q01726); experiment: cyclic AMP (cAMP) functional assay, MC1R stable cell line (CHO-K1); type: cell-based;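 also: cells with test compound for 60 min at room temperature in buffer containing IBMX, then cAMP quantified by Eu-cAMP tracer and ULight anti-cAMP detection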
T1 construct: host or cells: CHO-K1
T1 sequence (Q01726 whole entry): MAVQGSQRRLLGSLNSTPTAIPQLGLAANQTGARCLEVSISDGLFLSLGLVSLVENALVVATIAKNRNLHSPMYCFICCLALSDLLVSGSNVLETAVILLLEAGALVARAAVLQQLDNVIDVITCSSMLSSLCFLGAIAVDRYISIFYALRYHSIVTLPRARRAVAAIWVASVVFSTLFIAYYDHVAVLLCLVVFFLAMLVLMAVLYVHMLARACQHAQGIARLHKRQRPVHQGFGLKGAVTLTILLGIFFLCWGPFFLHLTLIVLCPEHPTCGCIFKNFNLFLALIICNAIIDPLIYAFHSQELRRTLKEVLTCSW

[3] = biological target: T2, human recombinant MC4R (Homo sapiens, UniProt P32245); experiment: Ca2+ signalling functional assay, MC4R stable cell line (CHO-K1/Gα15); type: cell-based
T2 construct: host or cells: CHO-K1/Gα15
T2 sequence (P32245 whole entry): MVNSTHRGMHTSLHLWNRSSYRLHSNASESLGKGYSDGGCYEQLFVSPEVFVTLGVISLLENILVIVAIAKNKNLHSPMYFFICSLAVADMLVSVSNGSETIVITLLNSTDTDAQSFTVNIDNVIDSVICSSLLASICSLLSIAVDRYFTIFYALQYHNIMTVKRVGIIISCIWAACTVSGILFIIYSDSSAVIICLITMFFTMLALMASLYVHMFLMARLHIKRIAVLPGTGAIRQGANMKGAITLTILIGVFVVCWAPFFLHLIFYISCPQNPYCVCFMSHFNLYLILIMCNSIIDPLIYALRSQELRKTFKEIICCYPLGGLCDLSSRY

[4] = In vivo topical administration pharmacokinetics of K173, rabbit (aqueous humor, cornea); details: for level at 0.5 h / level at 1 h / level at 2 h / level at 4 h / level at 8 h / level at 24 h: aqueous humor, topical or ocular; for level at 0.5 h: 30 Min post-last dose; for level at 1 h: 1 hr post-last dose; for level at 2 h: 2 hr post-last dose; for level at 4 h: 4 hr post-last dose; for level at 8 h: 8 hr post-last dose; for level at 24 h: 24 hr post-last dose
Description: Animals were not tranquilized for the examinations.
The remaining ocular tissues were discarded. Ocular samples were stored −80° C.
The rabbit efficacy model can be used to determine if QD or BID dosing is optimal for clinical utility.

[5] = In vivo topical administration pharmacokinetics / tissue distribution of K173, rat; details: four days of BID topical dosing
Description: To evaluate the pharmacokinetics of the peptide formulations following topical administration a study in rats was undertaken.
Treatment was administered twice daily (BID) with approximately 6-8 hours between BID doses.
All animals underwent twice daily cage side clinical observations with particular attention paid to the eyes. Animals were not tranquilized for the examinations.
When animals were terminal, blood was collected by inserting a 25G needle into the heart and the animal was exsanguinated and the blood was collected into K2EDTA tubes for plasma collection. […] Once centrifuged, the clear plasma was transferred to a prelabelled polypropylene tube, snap frozen and stored at approximately −80° C.
Following euthanasia, eyes were enucleated and rinsed twice with fresh ice-cold PBS. […] The anterior segment and lens were removed and the neurosensory retina was dissected into pre-weighed 2 mL polypropylene tube, re-weighed and snap frozen. The brain was collected and weighted and the hypothalamus, hippocampus, and remining brain were dissected, placed in pre-weighted polypropylene tubes, re-weighed, and snap frozen. All tissues were stored at −80° C.
The concentrations of K173 in the aqueous humor, retina, hypothalamus, hippocampus, remaining brain tissue, and plasma was measured and the values are provided in Table 7.

[6] = 5 mg/ml solution, 35 L per eye, Group 1 (single dose), topical 5 mg/ml, OD, Mean, read-out: K173 Concentrations (ng/mL) in Rabbit Aqueous Humor OD Sample, Mean
[7] = 5 mg/ml solution, 35 L per eye, Group 1 (single dose), topical 5 mg/ml, OS, Mean, read-out: K173 Concentrations (ng/mL) in Rabbit Aqueous Humor OS Sample, Mean
[8] = 5 mg/ml solution, 35 L per eye, Group 2 (4 doses), topical 5 mg/ml, OD, Mean, read-out: K173 Concentrations (ng/mL) in Rabbit Aqueous Humor OD Sample, Mean
[9] = 5 mg/ml solution, 35 L per eye, Group 2 (4 doses), topical 5 mg/ml, OS, Mean, read-out: K173 Concentrations (ng/mL) in Rabbit Aqueous Humor OS Sample, Mean
[10] = 5 mg/ml solution, 35 L per eye, Group 3 (8 BID doses), topical 5 mg/ml, OD, Mean, read-out: K173 Concentrations (ng/mL) in Rabbit Aqueous Humor OD Sample, Mean
[11] = 5 mg/ml solution, 35 L per eye, Group 3 (8 BID doses), topical 5 mg/ml, OS, Mean, read-out: K173 Concentrations (ng/mL) in Rabbit Aqueous Humor OS Sample, Mean
[12] = 5 mg/ml, Group 1 (single dose), topical 5 mg/ml, OD, Mean, read-out: K173 Concentrations (ng/mL) in Rabbit Aqueous Humor OD Sample, Mean
[13] = 5 mg/ml, Group 1 (single dose), topical 5 mg/ml, OS, Mean, read-out: K173 Concentrations (ng/mL) in Rabbit Aqueous Humor OS Sample, Mean
[14] = 5 mg/ml, Group 1 (single dose), topical 5 mg/ml, OS, individual animals, read-out: K173 Concentrations (ng/mL) in Rabbit Aqueous Humor OS Sample
[15] = 5 mg/ml, Group 2 (4 doses), topical 5 mg/ml, OD, Mean, read-out: K173 Concentrations (ng/mL) in Rabbit Aqueous Humor OD Sample, Mean
[16] = 5 mg/ml, Group 2 (4 doses), topical 5 mg/ml, OS, Mean, read-out: K173 Concentrations (ng/mL) in Rabbit Aqueous Humor OS Sample, Mean
[17] = 5 mg/ml, Group 2 (4 doses), topical 5 mg/ml, OD, individual animals, read-out: K173 Concentrations (ng/mL) in Rabbit Aqueous Humor OD Sample
[18] = 5 mg/ml, Group 3 (8 BID doses), topical 5 mg/ml, OD, Mean, read-out: K173 Concentrations (ng/mL) in Rabbit Aqueous Humor OD Sample, Mean
[19] = 5 mg/ml, Group 3 (8 BID doses), topical 5 mg/ml, OS, Mean, read-out: K173 Concentrations (ng/mL) in Rabbit Aqueous Humor OS Sample, Mean

**Q.** For CCCC[C@H](NC(=O)c1cc(O)cc(O)c1)C(=O)N[C@H]1CCCCn2cc(nn2)C[C@@H](C(N)=O)NC(=O)[C@H](Cc2c[nH]c3ccccc23)NC(=O)[C@H](CCCNC(=N)N)NC(=O)[C@@H](Cc2ccc(F)cc2)NC(=O)[C@H](Cc2c[nH]cn2)NC1=O [KR-072, HyBA-Nle-[Lys(N3)-His-Dphe(4-F)-Arg-Trp-Pra]-NH2] ({Benzoyl(3,5-(OH)2)}-[Nle][Lys(N3)]H[dPhe(4-F)]RW[Pra]-NH2; triazole 2-7), which solubility [1] is on record?
**A.** The solubility was 6470 µg/mL (≈ 5.58 mM).

**Q.** And the EC50 [2]?
**A.** Its EC50 is 0.0019 nM.

**Q.** And the IC50 ([2]; cAMP functional assay)?
**A.** Its IC50 is 1.9 pM.

**Q.** What about the EC50 [3] of the same molecule?
**A.** The EC50 was 98.6 nM.

**Q.** And the level at 0.5 h [4, 6]?
**A.** Its level at 0.5 h is 8.44 ng/mL.

**Q.** What about the level at 0.5 h [4, 7] of the same molecule?
**A.** The level at 0.5 h was 1.36 ng/mL.

**Q.** What about the level at 1 h [4, 6] of the same molecule?
**A.** The level at 1 h was 1.13 ng/mL.

**Q.** What about the level at 1 h [4, 7] of the same molecule?
**A.** Its level at 1 h is 5.22 ng/mL.

**Q.** And the level at 0.5 h [4, 8]?
**A.** The level at 0.5 h was 1.9 ng/mL.

**Q.** What about the level at 0.5 h [4, 9] of the same molecule?
**A.** Its level at 0.5 h is 3.47 ng/mL.

**Q.** What about the level at 1 h [4, 8] of the same molecule?
**A.** Its level at 1 h is 2.75 ng/mL.

**Q.** And the level at 1 h [4, 9]?
**A.** Its level at 1 h is 2.49 ng/mL.

**Q.** What about the level at 2 h [4, 10] of the same molecule?
**A.** Its level at 2 h is 10.5 ng/mL.

**Q.** And the level at 2 h [4, 11]?
**A.** Its level at 2 h is 12.1 ng/mL.

**Q.** What about the level at 4 h [4, 10] of the same molecule?
**A.** The level at 4 h was 11.6 ng/mL.

**Q.** What about the level at 4 h [4, 11] of the same molecule?
**A.** The level at 4 h was 7.33 ng/mL.

**Q.** What about the level at 8 h [4, 10] of the same molecule?
**A.** Its level at 8 h is 5.92 ng/mL.

**Q.** And the level at 8 h [4, 11]?
**A.** The level at 8 h was 6.42 ng/mL.

**Q.** And the level at 24 h [4, 10]?
**A.** The level at 24 h was 3.79 ng/mL.

**Q.** What about the level at 24 h [4, 11] of the same molecule?
**A.** Its level at 24 h is 4.45 ng/mL.

**Q.** And the level at 2 h [4, 12]?
**A.** The level at 2 h was 3.58 ng/mL.

**Q.** What about the level at 2 h [4, 13] of the same molecule?
**A.** Its level at 2 h is 1.89 ng/mL.

**Q.** And the level at 4 h [4, 12]?
**A.** Its level at 4 h is 2.68 ng/mL.

**Q.** And the level at 4 h ([4]; 5 mg/ml, Group 1 (single dose), topical 5 mg/ml, OD, individual animals, read-out: K173 Concentrations (ng/mL) in Rabbit Aqueous Humor OD Sample)?
**A.** The level at 4 h was 2.94 ng/mL.

**Q.** And the level at 4 h [4, 13]?
**A.** The level at 4 h was 3.35 ng/mL.

**Q.** What about the level at 4 h [4, 14] of the same molecule?
**A.** The level at 4 h was 3.56 ng/mL.

**Q.** And the level at 8 h [4, 12]?
**A.** The level at 8 h was 5.77 ng/mL.

**Q.** And the level at 8 h [4, 13]?
**A.** The level at 8 h was 4.2 ng/mL.

**Q.** And the level at 8 h [4, 14]?
**A.** The level at 8 h was 3.34 ng/mL.

**Q.** What about the level at 24 h [4, 12] of the same molecule?
**A.** Its level at 24 h is 3.22 ng/mL.

**Q.** What about the level at 24 h [4, 13] of the same molecule?
**A.** The level at 24 h was 2.46 ng/mL.

**Q.** What about the level at 24 h [4, 14] of the same molecule?
**A.** Its level at 24 h is 2.34 ng/mL.

**Q.** What about the level at 2 h [4, 15] of the same molecule?
**A.** The level at 2 h was 5.76 ng/mL.

**Q.** What about the level at 2 h [4, 16] of the same molecule?
**A.** The level at 2 h was 7.84 ng/mL.

**Q.** And the level at 4 h [4, 15]?
**A.** Its level at 4 h is 4.61 ng/mL.

**Q.** And the level at 4 h [4, 16]?
**A.** Its level at 4 h is 3.86 ng/mL.

**Q.** And the level at 8 h [4, 15]?
**A.** The level at 8 h was 10.9 ng/mL.

**Q.** What about the level at 8 h [4, 17] of the same molecule?
**A.** Its level at 8 h is 11.3 ng/mL.

**Q.** And the level at 8 h [4, 16]?
**A.** Its level at 8 h is 14.8 ng/mL.

**Q.** And the level at 24 h [4, 15]?
**A.** The level at 24 h was 1.98 ng/mL.

**Q.** What about the level at 24 h [4, 17] of the same molecule?
**A.** Its level at 24 h is 2.34 ng/mL.

**Q.** And the level at 24 h [4, 16]?
**A.** Its level at 24 h is 2.33 ng/mL.

**Q.** What about the level at 24 h ([4]; 5 mg/ml, Group 2 (4 doses), topical 5 mg/ml, OS, individual animals, read-out: K173 Concentrations (ng/mL) in Rabbit Aqueous Humor OS Sample) of the same molecule?
**A.** The level at 24 h was 2.3 ng/mL.

**Q.** What about the level at 0.5 h [4, 18] of the same molecule?
**A.** The level at 0.5 h was 10.3 ng/mL.

**Q.** And the level at 0.5 h [4, 19]?
**A.** Its level at 0.5 h is 8.11 ng/mL.

**Q.** What about the level at 1 h [4, 18] of the same molecule?
**A.** The level at 1 h was 5 ng/mL.

**Q.** What about the level at 1 h ([4]; 5 mg/ml, Group 3 (8 BID doses), topical 5 mg/ml, OD, individual animals, read-out: K173 Concentrations (ng/mL) in Rabbit Aqueous Humor OD Sample) of the same molecule?
**A.** Its level at 1 h is 5.13 ng/mL.

**Q.** And the level at 1 h [4, 19]?
**A.** The level at 1 h was 6.56 ng/mL.

**Q.** And the level at 1 h ([4]; 5 mg/ml, Group 3 (8 BID doses), topical 5 mg/ml, OS, individual animals, read-out: K173 Concentrations (ng/mL) in Rabbit Aqueous Humor OS Sample)?
**A.** The level at 1 h was 7.48 ng/mL.

**Q.** What about the “Aqueous humor levels 24 hours after last dose” value ([4]; topical 5 mg/ml, all dose groups) of the same molecule?
**A.** The value was “measurable levels were detected after 24 hours in all dose groups”.

**Q.** What about the “ocular surface retention and Tmax” value ([4]; topical, after a single dose) of the same molecule?
**A.** Its value is “prolonged ocular surface retention and Tmax”.

**Q.** What about the “K173 level in the neural retina” value [5] of the same molecule?
**A.** Its value is “high levels”.

**Q.** What about the “K173 presence in brain” value ([5]; hypothalamus, hippocampus, remaining brain) of the same molecule?
**A.** Its value is “found in all parts of the brains”.
